2 molecules from patent publication US11413348B2, “Low molecular weight cationic lipids for oligonucleotide delivery” (SIRNA THERAPEUTICS, INC., priority 2010, dated 2022) can be followed below.

The target in data set [1] is T1, serum ApoE (Macaca mulatta, UniProt Q28502).
T1 construct: from tissue; host or cells: rhesus monkey serum
In words: Heparin Sepharose HI-TRAP binding assay. The following applies: HI-TRAP binding upon rhesus serum incubation, 2×DPBS conditions. Further details: species or system rhesus monkey. Here is the method:
Lipid nanoparticles (LNP) with neutral surface charge are not retained after injection onto heparin sepharose with 1× Dulbecco's phosphate buffered saline (DPBS) as the running buffer but elute in the column void volume. […] Lipid nanoparticles with surface bound ApoE bind to heparin sepharose with high affinity and are eluted only at high salt (1M NaCl).
Lipid nanoparticles were incubated at 37° C. for 20 min at a final siRNA concentration of 50 μg/mL with various concentrations of either purified or recombinant human apolipoprotein E or 0.1-50% rat/mouse/rhesus monkey/human serum in 1× Dulbccco's phosphate buffered saline (DPBS). After incubation with ApoE or serum LNP samples were diluted 10-fold using 1×DPBS and analyzed by heparin sepharose chromatography. Peak area of retained LNP (after subtraction of appropriate blank signals) is compared to total peak area of LNP control without ApoE and/or serum incubation to determine the percentage of the LNP which undergoes shift to high affinity heparin interaction after incubation with ApoE/serum.
A heparin sepharose HI-TRAP™ chromatography column (GE Healthcare; 1 mL bed volume) is equilibrated with either 1× or 2× Dulbecco's PBS; the higher 2× salt concentration is used for LNPs with higher intrinsic retention on heparin sepharose (presumably due to higher positive surface charge). • Mobile Phase A: 1× or 2×DPBS • Mobile Phase B: 1M NaCl in 10 mM sodium phosphate buffer, pH 7.0 • 100% A delivered isocratically for 10 min followed by step gradient to 100% B; hold for additional 10 min; step gradient back to 100% A and reequilibrate for additional 10 min prior to injection of next sample • Flow rate: 1 mL/min • Sample injection volume: 50 μL. • Detection: UV @260 nm HI-TRAP™ Binding Results Upon Rhesus Serum Incubation (2×DPBS Conditions)

The nature of data set [2]: Determination of cationic lipid levels in monkey liver (LC/MS-MS). The data set is classed as in vivo. The following applies: monkeys, FIG. 7. Here is the method: (§1) Liver tissue was weighed into 20-ml vials and homogenized in 9 v/w of water using a GenoGrinder 2000 (OPS Diagnostics, 1600 strokes/min, 5 min). A 50 μL aliquot of each tissue homogenate was mixed with 300 μL of extraction/protein precipitating solvent (50/50 acetonitrile/methanol containing 500 nM internal standard) and the plate was centrifuged to sediment precipitated protein. A volume of 200 μL of each supernatant was then transferred to separate wells of a 96-well plate and 10 μl samples were directly analyzed by LC/MS-MS.
(§2) Standards were prepared by spiking known amounts of a methanol stock solution of compound into untreated rat liver homogenate (9 vol water/weight liver). Aliquots (50 μL) each standard/liver homogenate was mixed with 300 μL of extraction/protein precipitating solvent (50/50 acetonitrile/methanol containing 500 nM internal standard) and the plate was centrifuged to sediment precipitated protein. A volume of 200 μL of each supernatant was transferred to separate wells of a 96-well plate and 10 μl of each standard was directly analyzed by LC/MS-MS.
(§3) Absolute quantification versus standards prepared and extracted from liver homogenate was performed using an Aria LX-2 HPLC system (Thermo Scientific) coupled to an API 4000 triple quadrupole mass spectrometer (Applied Biosystems). […]

Data set [3] in a line: Rhesus monkey in vivo evaluation of ALT increases. The following applies: serum, FIG. 6. As for the experimental part: Alanine aminotransferase (ALT) is measured in serum that is harvested from clotted monkey whole blood after centrifugation. A Roche Modular System automated chemistry analyzer measures the enzymatic activity of ALT in the serum by using International Federation of Clinical Chemistry standardized procedures and reagents. The analyzer's computer uses absorbance measurements to calculated ALT activity in the sample as compared to a standard curve. The ALT activity is reported in International Units per Liter (IU/L).

Data set [4] relates to β-catenin mRNA. In words: TRE-MET HCC mouse pharmacodynamic study (β-catenin mRNA by Taqman in liver and tumor). The data set is classed as in vivo. The following applies: intravenous, 72 hours; for knockdown of β-catenin mRNA in both liver and tumor tissues: FIGS. 8, 9, 12, 13. As for the experimental part: The activity LNPs in delivering a β-catenin siRNA (siRNAβ-cat) to hepatocellular carcinoma was evaluated in a mouse hepatocellular carcinoma (HCC) model, named TRE-MET. TRE-MET mice are transgenic mice in an FVB/N genetic background where the human MET transgene is expressed under an hCMV promoter with hepatamerized upstream tet-operators. When TRE-MET mice are crossed with the LAP-tTA line, the double transgenic (TRE-MET/LAP-tTA) mice express MET in a liver-specific manner which can be suppressed by administration of doxycycline. These mice develop HCC at 3 months of age with visually identifiable tumor nodules on the liver surface and the tumors display a diffuse trabecular growth pattern typical for HCC and express the HCC tumor marker alpha-fetoprotein (AFP). In addition, the mutation analysis in the tumor of TRE-MET mice has also identified activating mutations in the beta-catenin gene in approximately 95% of tumors. These features make the TRE-MET HCC mouse model suitable for evaluating LNP-mediated delivery of β-catenin siRNA and the resultant efficacy on tumor growth.
The effect of β-catenin containing LNPs in silencing β-catenin mRNA in both liver and tumor tissues was first evaluated in a pharmacodynamic (PD) study in TRE-MET mice bearing tumors. Different doses of LNPs or a high dose of LNPcontrol siRNA were intravenously administered and 72 hours later, necropsy was performed to collect liver and tumor tissues for the determination of β-catenin mRNA levels by Taqman. […] The KD in tumors ranges from 70% (2 mpk) to about 40% (0.1 or 0.05 mpk).
In general terms: In qPCR the cycle at which signal appears reflects the starting amount.

Data set [5] in a line: Determination of cationic lipid levels in rat liver (LC/MS-MS). In kind it is in vivo. As to conditions: rats, FIG. 3. Here is the method:
as §1, §2, §3

Bounds are passed on as bounds.

T1 sequence (Q28502 19-295): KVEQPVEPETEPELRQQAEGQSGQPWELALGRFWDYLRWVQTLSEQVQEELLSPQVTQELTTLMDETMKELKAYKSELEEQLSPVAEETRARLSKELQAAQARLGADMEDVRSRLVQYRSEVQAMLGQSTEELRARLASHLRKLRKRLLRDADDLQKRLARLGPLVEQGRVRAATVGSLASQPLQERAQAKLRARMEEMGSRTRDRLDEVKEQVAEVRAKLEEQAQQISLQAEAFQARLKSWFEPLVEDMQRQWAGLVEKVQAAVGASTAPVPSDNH

As to `CCCCC/C=C\C/C=C\CCCCCCCCCC(CCCCCCCCC)CCN(C)C` (stereo not drawn) [Compound 32, (13Z,16Z)—N,N-dimethyl-3-nonyldocosa-13,16-dien-1-amine], in data set [1], the “% Bound” value turned out to be 100%. For the same molecule, the results for the “cationic lipid liver levels compared with RDV containing DLinKC2DMA (Compound 45) or MC3 (Compound 46)” value in data set [2] and in data set [5] were “lower than” and “either similar to or lower than”, respectively. In data set [3], the “peak ALT elevations compared with RDV containing DLinKC2DMA (Compound 45) or MC3 (Compound 46)” value was “lower peak ALT elevations”. Further, the “β-catenin mRNA KD in normal liver” value in data set [4] (0.05 mpk) was 78%; in data set [4] (0.1 mpk), 76%. Also, the “β-catenin mRNA KD in tumors” value is listed as 20-30% in data set [4] (0.1 or 0.05 mpk) and 47% in data set [4] (0.25 mpk). Besides, in data set [4], the “knockdown of β-catenin mRNA in both liver and tumor tissues” value was “robust and dose-dependent knockdown”.
Regarding `CCCCCCCCCC(CCCCCCCC1CC1CCCCCCCC)N(C)C` [Compound 33, N,N-dimethyl-1-[(1S,2R)-2-octylcyclopropyl]hepladecan-8-amine], the “% Bound” value in data set [1] is given as <5%. Besides, the figures for the “cationic lipid liver levels compared with RDV containing DLinKC2DMA (Compound 45) or MC3 (Compound 46)” value in data set [2] and in data set [5] were “lower than” and “either similar to or lower than”, respectively. In addition, the “peak ALT elevations compared with RDV containing DLinKC2DMA (Compound 45) or MC3 (Compound 46)” value in data set [3] is “lower peak ALT elevations”. For the same molecule, the “β-catenin mRNA KD in normal liver” value in data set [4] (0.05 mpk) was determined as 69%; in data set [4] (0.1 mpk), 88%. The “β-catenin mRNA KD in tumors” value is “about 40%” in data set [4] (0.1 or 0.05 mpk) and 70% in data set [4] (2 mpk). Also, the “knockdown of β-catenin mRNA in both liver and tumor tissues” value in data set [4] is “robust and dose-dependent knockdown”.
